{"source": "paper PMC10033419", "about": "“Blocking NS3–NS4B interaction inhibits dengue virus in non-human primates” (Nature, 2023)", "test_system": "DENV-2 RL", "assay": "microbe, parasite or virus in culture", "assay_type": "cell-based", "settings": "Dengue virus, DENV2, Vero", "note": "Read-outs that look alike come from different tables or passages of the source."}
{"molecule": "COc1cc(N[C@H](C(=O)c2c[nH]c3ccc(OC(F)(F)F)cc23)c2ccc(Cl)cc2OC)cc(S(C)(=O)=O)c1", "note": "[JNJ-1802]", "values": [{"measurement": "EC50", "setting": "read-out: EC50 values [Well 2], A sample, passage 18", "result": 3.13, "unit": "ng/mL"}, {"measurement": "EC50", "setting": "read-out: EC50 values [Well 2], A sample, passage 20", "result": 12.5, "unit": "ng/mL"}, {"measurement": "EC50", "setting": "read-out: EC50 values [Well 2], A sample, passage 21", "result": 12.5, "unit": "ng/mL"}, {"measurement": "EC50", "setting": "read-out: EC50 values [Well 2], A sample, passage 22", "result": 12.5, "unit": "ng/mL"}, {"measurement": "EC50", "setting": "read-out: EC50 values [Well 2], A sample, passage 23", "result": 12.5, "unit": "ng/mL"}, {"measurement": "EC50", "setting": "read-out: EC50 values [Well 2], A sample, passage 24", "result": 25, "unit": "ng/mL"}, {"measurement": "EC50", "setting": "read-out: EC50 values [Well 2], A sample, passage 25", "result": 25, "unit": "ng/mL"}, {"measurement": "EC50", "setting": "read-out: EC50 values [Well 2], A sample, passage 26", "result": 50, "unit": "ng/mL"}, {"measurement": "EC50", "setting": "read-out: EC50 values [Well 2], A sample, passage 27", "result": 100, "unit": "ng/mL"}, {"measurement": "EC50", "setting": "read-out: EC50 values [Well 2], A sample, passage 28", "result": 100, "unit": "ng/mL"}, {"measurement": "EC50", "setting": "read-out: EC50 values [Well 2], A sample, passage 29", "result": 100, "unit": "ng/mL"}, {"measurement": "EC50", "setting": "read-out: EC50 values [Well 2], A sample, passage 30", "result": 100, "unit": "ng/mL"}, {"measurement": "EC50", "setting": "read-out: EC50 values [Well 2], A sample, passage 31", "result": 50, "unit": "ng/mL"}, {"measurement": "EC50", "setting": "read-out: EC50 values [Well 2], A sample, passage 32", "result": 50, "unit": "ng/mL"}, {"measurement": "EC50", "setting": "read-out: EC50 values [Well 2], A sample, passage 33", "result": 100, "unit": "ng/mL"}, {"measurement": "EC50", "setting": "read-out: EC50 values [Well 2], A sample, passage 34", "result": 100, "unit": "ng/mL"}, {"measurement": "EC50", "setting": "read-out: EC50 values [Well 2], A sample, passage 35", "result": 100, "unit": "ng/mL"}, {"measurement": "EC50", "setting": "read-out: EC50 values [Well 2], A sample, passage 36", "result": 100, "unit": "ng/mL"}, {"measurement": "EC50", "setting": "read-out: EC50 values [Well 2], A sample, passage 37", "result": 200, "unit": "ng/mL"}, {"measurement": "EC50", "setting": "read-out: EC50 values [Well 2], A sample, passage 38", "result": 200, "unit": "ng/mL"}, {"measurement": "EC50", "setting": "read-out: EC50 values [Well 2], A sample, passage 39", "result": 500, "unit": "ng/mL"}, {"measurement": "EC50", "setting": "read-out: EC50 values [Well 2], A sample, passage 40", "result": 500, "unit": "ng/mL"}, {"measurement": "EC50", "setting": "read-out: EC50 values [Well 2], A sample, passage 41", "result": 500, "unit": "ng/mL"}, {"measurement": "EC50", "setting": "read-out: EC50 values [Well 2], A sample, passage 42 (END)", "result": 500, "unit": "ng/mL"}, {"measurement": "EC50", "setting": "read-out: EC50 values [Well 2], B sample, passage 1", "result": 0.024, "unit": "ng/mL"}, {"measurement": "EC50", "setting": "read-out: EC50 values [Well 2], B sample, passage 2", "result": 0.024, "unit": "ng/mL"}, {"measurement": "EC50", "setting": "read-out: EC50 values [Well 2], B sample, passage 3", "result": 0.024, "unit": "ng/mL"}, {"measurement": "EC50", "setting": "read-out: EC50 values [Well 2], B sample, passage 4", "result": 0.024, "unit": "ng/mL"}, {"measurement": "EC50", "setting": "read-out: EC50 values [Well 2], B sample, passage 5", "result": 0.024, "unit": "ng/mL"}, {"measurement": "EC50", "setting": "read-out: EC50 values [Well 2], B sample, passage 6", "result": 0.049, "unit": "ng/mL"}, {"measurement": "EC50", "setting": "read-out: EC50 values [Well 2], B sample, passage 7", "result": 0.049, "unit": "ng/mL"}, {"measurement": "EC50", "setting": "read-out: EC50 values [Well 2], B sample, passage 8", "result": 0.049, "unit": "ng/mL"}, {"measurement": "EC50", "setting": "read-out: EC50 values [Well 2], B sample, passage 9", "result": 0.049, "unit": "ng/mL"}, {"measurement": "EC50", "setting": "read-out: EC50 values [Well 2], B sample, passage 10", "result": 0.049, "unit": "ng/mL"}, {"measurement": "EC50", "setting": "read-out: EC50 values [Well 2], B sample, passage 13", "result": 0.195, "unit": "ng/mL"}, {"measurement": "EC50", "setting": "read-out: EC50 values [Well 2], B sample, passage 14", "result": 0.049, "unit": "ng/mL"}, {"measurement": "EC50", "setting": "read-out: EC50 values [Well 2], B sample, passage 15", "result": 0.049, "unit": "ng/mL"}, {"measurement": "EC50", "setting": "read-out: EC50 values [Well 2], B sample, passage 19", "result": 0.195, "unit": "ng/mL"}, {"measurement": "EC50", "setting": "read-out: EC50 values [Well 2], B sample, passage 20", "result": 0.195, "unit": "ng/mL"}, {"measurement": "EC50", "setting": "read-out: EC50 values [Well 2], B sample, passage 21", "result": 0.195, "unit": "ng/mL"}, {"measurement": "EC50", "setting": "read-out: EC50 values [Well 2], B sample, passage 22", "result": 0.195, "unit": "ng/mL"}, {"measurement": "EC50", "setting": "read-out: EC50 values [Well 2], B sample, passage 23", "result": 0.391, "unit": "ng/mL"}, {"measurement": "EC50", "setting": "read-out: EC50 values [Well 2], B sample, passage 25", "result": 1.56, "unit": "ng/mL"}, {"measurement": "EC50", "setting": "read-out: EC50 values [Well 2], B sample, passage 26", "result": 3.13, "unit": "ng/mL"}, {"measurement": "EC50", "setting": "read-out: EC50 values [Well 2], B sample, passage 27", "result": 3.13, "unit": "ng/mL"}, {"measurement": "EC50", "setting": "read-out: EC50 values [Well 2], B sample, passage 28", "result": 3.13, "unit": "ng/mL"}, {"measurement": "EC50", "setting": "read-out: EC50 values [Well 2], B sample, passage 29", "result": 12.5, "unit": "ng/mL"}, {"measurement": "EC50", "setting": "read-out: EC50 values [Well 2], B sample, passage 31", "result": 15.6, "unit": "ng/mL"}, {"measurement": "EC50", "setting": "read-out: EC50 values [Well 2], B sample, passage 32", "result": 15.6, "unit": "ng/mL"}, {"measurement": "EC50", "setting": "read-out: EC50 values [Well 2], B sample, passage 33", "result": 31.3, "unit": "ng/mL"}, {"measurement": "EC50", "setting": "read-out: EC50 values [Well 2], B sample, passage 34", "result": 31.3, "unit": "ng/mL"}, {"measurement": "EC50", "setting": "read-out: EC50 values [Well 2], B sample, passage 35", "result": 31.3, "unit": "ng/mL"}, {"measurement": "EC50", "setting": "read-out: EC50 values [Well 2], B sample, passage 36", "result": 31.3, "unit": "ng/mL"}, {"measurement": "EC50", "setting": "read-out: EC50 values [Well 2], B sample, passage 37", "result": 31.3, "unit": "ng/mL"}, {"measurement": "EC50", "setting": "read-out: EC50 values [Well 2], B sample, passage 38", "result": 31.3, "unit": "ng/mL"}, {"measurement": "EC50", "setting": "read-out: EC50 values [Well 2], B sample, passage 39", "result": 62.5, "unit": "ng/mL"}, {"measurement": "EC50", "setting": "read-out: EC50 values [Well 2], B sample, passage 40", "result": 125, "unit": "ng/mL"}, {"measurement": "EC50", "setting": "read-out: EC50 values [Well 2], B sample, passage 41", "result": 250, "unit": "ng/mL"}, {"measurement": "EC50", "setting": "read-out: EC50 values [Well 2], B sample, passage 42", "result": 250, "unit": "ng/mL"}, {"measurement": "EC50", "setting": "read-out: EC50 values [Well 2], B sample, passage 43", "result": 250, "unit": "ng/mL"}, {"measurement": "EC50", "setting": "read-out: EC50 values [Well 2], B sample, passage 44", "result": 250, "unit": "ng/mL"}, {"measurement": "EC50", "setting": "read-out: EC50 values [Well 2], B sample, passage 45", "result": 250, "unit": "ng/mL"}, {"measurement": "EC50", "setting": "read-out: EC50 values [Well 2], B sample, passage 46", "result": 250, "unit": "ng/mL"}, {"measurement": "EC50", "setting": "read-out: EC50 values [Well 2], B sample, passage 47", "result": 250, "unit": "ng/mL"}, {"measurement": "EC50", "setting": "read-out: EC50 values [Well 2], B sample, passage 48", "result": 500, "unit": "ng/mL"}, {"measurement": "EC50", "setting": "read-out: EC50 values [Well 2], B sample, passage 49", "result": 500, "unit": "ng/mL"}, {"measurement": "EC50", "setting": "read-out: EC50 values [Well 2], B sample, passage 50 (END)", "result": 500, "unit": "ng/mL"}]}
